Where “and” joins values, the source holds several entries; their conditions need not be identical. Equal values may be shown once. Read-outs that look alike come from different tables or passages of the source.
Experiments:
Human mTOR (FLAG-TOR) = Human mTOR (FLAG-TOR) (Homo sapiens, UniProt P42345); experiment: mTOR kinase assay (DELFIA format, purified enzyme); format: biochemical; details: read-out: IC50 mTOR
PI3K-γ = PI3K-γ (Homo sapiens, UniProt P48736); experiment: PI3K-gamma fluorescence polarization assay; details: read-out: IC50 PI3Kγ
PI3K-α = PI3K-α (Homo sapiens, UniProt P42336); experiment: PI3K-alpha fluorescence polarization assay; details: read-out: IC50 PI3Kα
PI3K-α, sequence (P42336 whole entry, species assumed): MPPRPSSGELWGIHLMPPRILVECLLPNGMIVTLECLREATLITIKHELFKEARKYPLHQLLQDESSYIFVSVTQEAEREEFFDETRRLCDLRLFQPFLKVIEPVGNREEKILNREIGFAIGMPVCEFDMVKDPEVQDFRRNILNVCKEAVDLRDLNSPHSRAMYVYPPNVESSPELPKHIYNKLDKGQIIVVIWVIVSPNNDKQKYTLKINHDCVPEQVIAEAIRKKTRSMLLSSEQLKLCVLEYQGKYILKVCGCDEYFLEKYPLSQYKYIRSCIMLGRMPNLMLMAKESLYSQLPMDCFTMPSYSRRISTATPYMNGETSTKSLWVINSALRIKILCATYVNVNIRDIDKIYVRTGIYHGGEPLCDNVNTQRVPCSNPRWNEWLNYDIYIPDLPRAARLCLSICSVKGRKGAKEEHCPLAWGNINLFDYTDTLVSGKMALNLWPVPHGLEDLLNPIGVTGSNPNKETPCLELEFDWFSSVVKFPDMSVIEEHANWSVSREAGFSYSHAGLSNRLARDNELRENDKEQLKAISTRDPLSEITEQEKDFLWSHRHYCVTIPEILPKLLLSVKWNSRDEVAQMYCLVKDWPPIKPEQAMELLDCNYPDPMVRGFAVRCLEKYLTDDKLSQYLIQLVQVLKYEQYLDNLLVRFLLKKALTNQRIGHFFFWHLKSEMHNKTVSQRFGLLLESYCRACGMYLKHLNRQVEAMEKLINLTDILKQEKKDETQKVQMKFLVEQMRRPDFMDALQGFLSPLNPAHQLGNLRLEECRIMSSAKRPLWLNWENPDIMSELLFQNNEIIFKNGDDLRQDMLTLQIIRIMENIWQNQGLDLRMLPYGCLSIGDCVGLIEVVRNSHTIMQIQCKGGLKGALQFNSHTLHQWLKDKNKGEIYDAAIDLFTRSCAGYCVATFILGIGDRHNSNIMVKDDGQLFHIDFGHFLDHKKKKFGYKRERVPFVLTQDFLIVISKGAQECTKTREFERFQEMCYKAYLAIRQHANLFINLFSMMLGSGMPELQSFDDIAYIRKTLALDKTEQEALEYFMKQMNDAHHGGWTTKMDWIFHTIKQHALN
PI3K-α, sequence (P27986 whole entry partner, species assumed): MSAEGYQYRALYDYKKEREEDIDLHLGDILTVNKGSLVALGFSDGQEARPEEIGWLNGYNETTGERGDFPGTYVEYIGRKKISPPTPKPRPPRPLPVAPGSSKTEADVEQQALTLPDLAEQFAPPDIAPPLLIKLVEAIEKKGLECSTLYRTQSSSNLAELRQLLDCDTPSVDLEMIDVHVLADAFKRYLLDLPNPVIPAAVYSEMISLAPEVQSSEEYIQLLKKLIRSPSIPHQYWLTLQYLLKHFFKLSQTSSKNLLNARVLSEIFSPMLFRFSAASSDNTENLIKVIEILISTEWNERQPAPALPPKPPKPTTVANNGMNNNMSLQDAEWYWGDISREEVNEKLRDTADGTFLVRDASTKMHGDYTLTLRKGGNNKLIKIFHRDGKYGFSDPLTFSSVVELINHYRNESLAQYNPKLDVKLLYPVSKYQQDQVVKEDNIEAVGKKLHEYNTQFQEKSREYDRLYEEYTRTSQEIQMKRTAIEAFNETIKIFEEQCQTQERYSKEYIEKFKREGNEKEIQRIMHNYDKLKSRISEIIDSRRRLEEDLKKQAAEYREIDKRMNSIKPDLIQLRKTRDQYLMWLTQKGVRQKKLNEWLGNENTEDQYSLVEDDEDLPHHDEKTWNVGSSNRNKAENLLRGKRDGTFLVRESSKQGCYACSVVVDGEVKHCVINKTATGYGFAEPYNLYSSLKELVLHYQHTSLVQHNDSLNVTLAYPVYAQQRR

Human mTOR (FLAG-TOR), sequence (P42345 1360-2549 limits assumed): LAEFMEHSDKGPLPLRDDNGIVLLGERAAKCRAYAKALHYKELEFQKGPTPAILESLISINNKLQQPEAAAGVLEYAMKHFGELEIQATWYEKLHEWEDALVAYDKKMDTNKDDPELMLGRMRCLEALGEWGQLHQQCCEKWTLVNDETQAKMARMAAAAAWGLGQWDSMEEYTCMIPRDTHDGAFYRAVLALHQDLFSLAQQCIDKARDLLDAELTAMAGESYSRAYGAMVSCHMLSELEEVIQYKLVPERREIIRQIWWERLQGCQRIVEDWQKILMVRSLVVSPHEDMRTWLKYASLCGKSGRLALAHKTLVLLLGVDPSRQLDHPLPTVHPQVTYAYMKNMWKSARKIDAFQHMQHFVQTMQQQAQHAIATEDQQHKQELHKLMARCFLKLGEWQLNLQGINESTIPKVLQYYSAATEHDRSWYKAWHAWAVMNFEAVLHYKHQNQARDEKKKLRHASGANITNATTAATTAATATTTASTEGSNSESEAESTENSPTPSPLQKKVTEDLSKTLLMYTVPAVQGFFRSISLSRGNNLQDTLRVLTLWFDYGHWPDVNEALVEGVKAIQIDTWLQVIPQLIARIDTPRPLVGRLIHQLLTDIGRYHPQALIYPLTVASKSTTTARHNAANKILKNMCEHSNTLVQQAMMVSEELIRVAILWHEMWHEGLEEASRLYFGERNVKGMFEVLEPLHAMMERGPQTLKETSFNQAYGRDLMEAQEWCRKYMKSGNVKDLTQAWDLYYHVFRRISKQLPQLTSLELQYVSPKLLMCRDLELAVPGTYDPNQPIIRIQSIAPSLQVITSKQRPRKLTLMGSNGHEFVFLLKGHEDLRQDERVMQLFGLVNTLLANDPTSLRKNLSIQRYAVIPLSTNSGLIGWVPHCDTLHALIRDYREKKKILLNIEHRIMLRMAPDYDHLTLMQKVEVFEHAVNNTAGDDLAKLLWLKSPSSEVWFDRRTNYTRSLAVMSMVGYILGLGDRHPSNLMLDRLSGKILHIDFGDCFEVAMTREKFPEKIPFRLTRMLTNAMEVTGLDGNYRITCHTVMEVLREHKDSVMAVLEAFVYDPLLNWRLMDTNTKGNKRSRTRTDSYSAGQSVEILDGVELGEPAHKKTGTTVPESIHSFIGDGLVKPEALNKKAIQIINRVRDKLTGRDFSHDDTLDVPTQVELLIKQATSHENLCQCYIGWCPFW
PI3K-γ, sequence (P48736 whole entry, species assumed): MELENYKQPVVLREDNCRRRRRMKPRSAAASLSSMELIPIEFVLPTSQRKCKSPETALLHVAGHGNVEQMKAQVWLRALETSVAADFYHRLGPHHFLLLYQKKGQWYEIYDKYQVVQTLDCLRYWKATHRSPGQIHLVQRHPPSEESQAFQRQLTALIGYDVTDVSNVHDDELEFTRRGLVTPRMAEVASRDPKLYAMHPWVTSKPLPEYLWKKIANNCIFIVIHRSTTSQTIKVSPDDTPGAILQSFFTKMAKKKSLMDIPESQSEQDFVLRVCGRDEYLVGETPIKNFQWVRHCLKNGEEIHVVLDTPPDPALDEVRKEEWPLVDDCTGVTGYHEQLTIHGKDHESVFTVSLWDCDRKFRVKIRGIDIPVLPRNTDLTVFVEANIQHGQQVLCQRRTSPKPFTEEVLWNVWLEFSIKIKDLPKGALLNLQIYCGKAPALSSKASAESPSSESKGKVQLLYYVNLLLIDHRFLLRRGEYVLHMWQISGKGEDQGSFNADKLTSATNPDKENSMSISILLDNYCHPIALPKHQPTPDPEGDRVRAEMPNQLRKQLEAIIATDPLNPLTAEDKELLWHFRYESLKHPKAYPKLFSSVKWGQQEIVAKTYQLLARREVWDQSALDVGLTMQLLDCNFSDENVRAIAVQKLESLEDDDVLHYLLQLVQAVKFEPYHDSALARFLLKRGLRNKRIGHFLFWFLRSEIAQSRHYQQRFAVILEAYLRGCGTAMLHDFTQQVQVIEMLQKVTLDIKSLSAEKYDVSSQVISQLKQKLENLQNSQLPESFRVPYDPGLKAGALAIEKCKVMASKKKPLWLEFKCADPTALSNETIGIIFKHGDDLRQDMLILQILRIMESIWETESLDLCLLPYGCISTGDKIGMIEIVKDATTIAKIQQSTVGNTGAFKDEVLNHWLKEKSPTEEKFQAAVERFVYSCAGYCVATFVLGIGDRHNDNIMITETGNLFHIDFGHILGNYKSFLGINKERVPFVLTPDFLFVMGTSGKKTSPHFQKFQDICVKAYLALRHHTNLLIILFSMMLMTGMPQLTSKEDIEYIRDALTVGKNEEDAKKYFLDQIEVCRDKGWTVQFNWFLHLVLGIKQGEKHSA

SMILES | IC50 (Human mTOR (FLAG-TOR)) | IC50 (PI3K-γ) [nM] | IC50 (PI3K-α) [nM] | IC50 (PI3K-γ; listed as 531) [nM] | IC50 (PI3K-α; listed as 531) [nM] | IC50 (PI3K-γ; listed as 530) [nM] | IC50 (PI3K-γ; listed as 526) [nM] | IC50 (PI3K-α; listed as 526) [nM] | IC50 (PI3K-α; listed as 528) [nM]
CCc1nc(-c2ccc(NC(=O)Nc3ccc(C(=O)OC)cc3)cc2)nc(N2CCOCC2)n1 [Example 225, methyl 4-({[4-(4-ethyl-6-morpholin-4-yl-1,3,5-triazin-2-yl)phenyl]carbamoyl}amino)benzoate] | 47 nM | 388 | 109 |  |  |  |  |  | 
COC(=O)c1ccc(NC(=O)Nc2ccc(-c3nc(C4=CCOCC4)nc(N4CCOCC4)n3)cc2)cc1 [Example 226, methyl 4-[({4-[4-(3,6-dihydro-2H-pyran-4-yl)-6-morpholin-4-yl-1,3,5-triazin-2-yl]phenyl}carbamoyl)amino]benzoate] | 62 nM | 294 | 75 |  |  |  |  |  | 
O=C(Nc1ccncc1)Nc1ccc(-c2nc(N3CCOCC3)nc(N3CC4CNCC(C3)O4)n2)cc1 [Example 290, 1-{4-[4-morpholin-4-yl-6-(9-oxa-3,7-diazabicyclo[3.3.1]non-3-yl)-1,3,5-triazin-2-yl]phenyl}-3-pyridin-4-ylurea] | 150 nM and 145 nM | 166 | 97 |  |  |  |  |  | 
CN1CC2CN(c3nc(-c4ccc(NC(=O)Nc5ccncc5)cc4)nc(N4CCOCC4)n3)CC(C1)O2 [Example 291, 1-{4-[4-(7-methyl-9-oxa-3,7-diazabicyclo[3.3.1]non-3-yl)-6-morpholin-4-yl-1,3,5-triazin-2-yl]phenyl}-3-pyridin-4-ylurea] | 190 nM | 711 | 368 |  |  |  |  |  | 
CS(=O)(=O)N1CC2CN(c3nc(-c4ccc(NC(=O)Nc5ccncc5)cc4)nc(N4CCOCC4)n3)CC(C1)O2 [Example 293, 1-(4-{4-[7-(methylsulfonyl)-9-oxa-3,7-diazabicyclo[3.3.1]non-3-yl]-6-morpholin-4-yl-1,3,5-triazin-2-yl}phenyl)-3-pyridin-4-yl urea] | 500 nM and 470 nM | 533 | 764 |  |  |  |  |  | 
Cc1ccc(-c2nc(-c3ccc(NC(=O)Nc4ccncc4)cc3)nc(N3CCOCC3)n2)cc1 [Example 340, 1-{4-[4-(4-methylphenyl)-6-morpholin-4-yl-1,3,5-triazin-2-yl]phenyl}-3-pyridin-4-ylurea] | 46 nM and 49.5 nM | 706 | 92 |  |  | 706 |  |  | 
C[C@@H]1COCCN1c1nc(-c2ccc(NC(=O)Nc3cccnc3)cc2)nc(C2CCOCC2)n1 [Example 420, (R)-1-(4-(4-(3-methylmorpholino)-6-(tetrahydro-2H-pyran-4-yl)-1,3,5-triazin-2-yl)phenyl)-3-(pyridin-3-yl)urea] | 0.63 nM | 4360 | 593 |  |  |  |  |  | 
C[C@@H]1COCCN1c1nc(-c2ccc(NC(=O)Nc3ccc(N4CCC(N(C)C)CC4)cc3)cc2)nc(N2CCOC[C@H]2C)n1 [Example 449, 1-(4-(4,6-bis((R)-3-methylmorpholino)-1,3,5-triazin-2-yl)phenyl)-3-(4-(4-(dimethylamino)piperidin-1-yl)phenyl)urea] | 1.9 nM | 1640 | 287 |  |  |  |  |  | 
O=C(Nc1ccncc1)Nc1ccc(-c2nc(N3CCOCC3)nc(N3C4COCC(O)C3C4)n2)cc1 (stereo not drawn) [Example 480, 1-{4-[4-(5-hydroxy-3-oxa-7-azabicyclo[4.1.1]oct-7-yl)-6-morpholin-4-yl-1,3,5-triazin-2-yl]phenyl}-3-pyridin-4-ylurea] | 2.9 nM | 53 | 13 |  |  |  |  |  | 
O=C(Nc1ccc(-c2nc(N3CCOCC3)nc(N3CCOCC3)n2)cc1)Nc1ccnnc1 [Example 481, 1-[4-(4,6-dimorpholin-4-yl-1,3,5-triazin-2-yl)phenyl]-3-pyridazin-4-ylurea] | 2.3 nM | 65 | 11 |  |  |  |  |  | 
O=C(Nc1ccc(-c2nc(N3CCOCC3)nc(N3C4CCC3COC4)n2)cc1)Nc1ccnnc1 [Example 483, 1-{4-[4-morpholin-4-yl-6-(3-oxa-8-azabicyclo[3.2.1]oct-8-yl)-1,3,5-triazin-2-yl]phenyl}-3-pyridazin-4-ylurea] | 1.55 nM | 150 | 28.5 |  |  |  |  |  | 
COC(CNc1nc(-c2ccc(NC(=O)Nc3cccnc3)cc2)nc(N2CCOCC2)n1)OC [Example 488, 1-(4-{4-[(2,2-dimethoxyethyl)amino]-6-morpholin-4-yl-1,3,5-triazin-2-yl}phenyl)-3-pyridin-3-ylurea] | 3.4 nM | 180 | 42 |  |  |  |  |  | 
CC(C)c1nc(-c2ccc(NC(=O)Nc3ccc(-c4cnc(N(C)C)nc4)cc3)cc2)nc(N2CCOCC2)n1 [Example 493, 1-{4-[2-(dimethylamino)pyrimidin-5-yl]phenyl}-3-{4-[4-(1-methylethyl)-6-morpholin-4-yl-1,3,5-triazin-2-yl]phenyl}urea] | 32.5 nM | 1080 | 2920 |  |  |  |  |  | 
COC(=O)c1ccc(NC(=O)Nc2ccc(-c3nc(-c4ccccc4)nc(N4CCOCC4)n3)cc2)cc1 [Example 538, methyl 4-({[4-(4-morpholin-4-yl-6-phenyl-1,3,5-triazin-2-yl)phenyl]carbamoyl}amino)benzoate] | 0.125 nM | 197 | 333 |  |  |  |  |  | 
C[C@H]1COCCN1c1nc(-c2ccc(NC(=O)Nc3ccc(C(=O)O)cc3)cc2)nc(N2CCOC[C@@H]2C)n1 [Example 549, 4-{[(4-{4,6-bis[(3S)-3-methylmorpholin-4-yl]-1,3,5-triazin-2-yl}phenyl)carbamoyl]amino}benzoic acid] | 26.5 nM | 4540 | 724 |  |  |  |  |  | 
Cc1ccc(-c2nc(-c3ccc(NC(=O)Nc4ccc(C(=O)N5CCCCC5)cc4)cc3)nc(N3CCOCC3)n2)cc1 [Example 555, 1-{4-[4-(4-methylphenyl)-6-morpholin-4-yl-1,3,5-triazin-2-yl]phenyl}-3-[4-(piperidin-1-ylcarbonyl)phenyl]urea] | 405 nM | 378 | 87.5 |  |  |  |  |  | 

Continued by falling IC50 (PI3K-γ), values first:

IC50 (Human mTOR (FLAG-TOR)) | IC50 (PI3K-γ) [nM] | IC50 (PI3K-α) [nM] | IC50 (PI3K-γ; listed as 531) [nM] | IC50 (PI3K-α; listed as 531) [nM] | IC50 (PI3K-γ; listed as 530) [nM] | IC50 (PI3K-γ; listed as 526) [nM] | IC50 (PI3K-α; listed as 526) [nM] | IC50 (PI3K-α; listed as 528) [nM] | SMILES
40 nM and 47.5 nM | 6700 | 97 |  |  |  | 6700 | 96.5 |  | Cc1ccc(-c2nc(-c3ccc(NC(=O)Nc4ccc(N5CCN(C)CC5)cc4)cc3)nc(N3CCOCC3)n2)cc1 [Example 343, 1-{4-[4-(4-methylphenyl)-6-morpholin-4-yl-1,3,5-triazin-2-yl]phenyl}-3-[4-(4-methylpiperazin-1-yl)phenyl]urea]
2800 nM | 4980 | 2190 |  |  |  |  |  |  | CC(C)(C)OC(=O)N1CC2CN(c3nc(-c4ccc(NC(=O)Nc5ccncc5)cc4)nc(N4CCOCC4)n3)CC(C1)O2 [Example 281, tert-butyl-7-(4-morpholin-4-yl-6-{4-[(pyridin-4-ylcarbamoyl)amino]phenyl}-1,3,5-triazin-2-yl)-9-oxa-3,7-diazabicyclo[3.3.1]nonane-3-carboxylate]
1500 nM and 1600 nM | 4140 | 1610 |  |  |  |  |  | 1610 | COC(=O)c1ccc(NC(=O)Nc2ccc(-c3nc(-c4ccc(C)cc4)nc(N4CCOCC4)n3)cc2)cc1 [Example 344, methyl 4-[({4-[4-(4-methylphenyl)-6-morpholin-4-yl-1,3,5-triazin-2-yl]phenyl}carbamoyl)amino]benzoate]
70 nM and 68 nM | 3690 | 1500 |  |  |  |  |  |  | CC(=O)N1CC2CN(c3nc(-c4ccc(NC(=O)Nc5ccncc5)cc4)nc(N4CCOCC4)n3)CC(C1)O2 [Example 292, 1-{4-[4-(7-acetyl-9-oxa-3,7-diazabicyclo[3.3.1]non-3-yl)-6-morpholin-4-yl-1,3,5-triazin-2-yl]phenyl}-3-pyridin-4-ylurea]
11 nM | 2380 | 7540 |  |  |  |  |  |  | CCCCc1nc(-c2ccc(NC(=O)Nc3ccc(C(=O)OC)cc3)cc2)nc(N2CCOCC2)n1 [Example 188, methyl 4-({[4-(4-butyl-6-morpholin-4-yl-1,3,5-triazin-2-yl)phenyl]carbamoyl}amino)benzoate]
0.16 nM | 2070 | 173 |  |  |  |  |  |  | C[C@@H]1COCCN1c1nc(-c2ccc(NC(=O)Nc3ccncc3)cc2)nc(N2CCOC[C@H]2C)n1 [Example 397, 1-(4-(4,6-bis((R)-3-methylmorpholino)-1,3,5-triazin-2-yl)phenyl)-3-(pyridin-4-yl)urea]
11.6 nM | 1080 | 586 |  |  |  |  |  |  | CC(C)c1nc(-c2ccc(NC(=O)Nc3ccc(I)cc3)cc2)nc(N2CCOCC2)n1 [Example 490, 1-(4-iodophenyl)-3-{4-[4-(1-methylethyl)-6-morpholin-4-yl-1,3,5-triazin-2-yl]phenyl}urea]
100 nM | 504 | 269 |  |  |  |  |  |  | COC(=O)c1ccc(NC(=O)Nc2ccc(-c3nc(-c4cccs4)nc(N4CCOCC4)n3)cc2)cc1 [Example 560, methyl 4-[({4-[4-morpholin-4-yl-6-(2-thienyl)-1,3,5-triazin-2-yl]phenyl}carbamoyl)amino]benzoate]
90 nM and 80 nM | 485 | 71 | 484 | 71.5 |  |  |  |  | Cc1ccc(-c2nc(-c3ccc(NC(=O)Nc4ccc(N5CCC(N(C)C)CC5)cc4)cc3)nc(N3CCOCC3)n2)cc1 [Example 339, 1-{4-[4-(dimethylamino)piperidin-1-yl]phenyl}-3-{4-[4-(4-methylphenyl)-6-morpholin-4-yl-1,3,5-triazin-2-yl]phenyl}urea]
17 nM | 253 | 63 |  |  |  |  |  |  | CCCCc1nc(-c2ccc(NC(=O)Nc3ccc(CN4CCN(C)CC4)cc3)cc2)nc(N2CCOCC2)n1 [Example 254, 1-[4-(4-butyl-6-morpholin-4-yl-1,3,5-triazin-2-yl)phenyl]-3-{4-[(4-methylpiperazin-1-yl)methyl]phenyl}urea]
3.6 nM | 3 | 1 |  |  |  |  |  |  | CN(C)CCN1CCN(C(=O)c2ccc(NC(=O)Nc3ccc(-c4nc(N5CCOCC5)nc(N5CCOCC5)n4)cc3)cc2)CC1 [Example 168, 1-[4-({4-[2-(dimethylamino)ethyl]piperazin-1-yl}carbonyl)phenyl]-3-[4-(4,6-dimorpholin-4-yl-1,3,5-triazin-2-yl)phenyl]urea]

From patent US20090304692A1, “TRIAZINE COMPOUNDS AS PI3 KINASE AND MTOR INHIBITORS” (Wyeth, priority 2008, published 2009)
